Source: paper PMC5577450, “An ancient FMRFamide-related peptide–receptor pair induces defence behaviour in a brachiopod larva” (Open Biology, 2017)

Key:
[1] = test system: Terebratalia transversa larvae; assay: Behavioural assay: full contraction / defence stance of larvae exposed to synthetic peptides; assay type: in vivo; conditions: for contraction reaction of larvae (in words): at 50 µmol l^−1 (maximum concentration cutoff); for necessary concentration to induce defense stance (full contraction): > 50 stands for 'no contraction at 50 µM'
Procedure: The reaction of larvae to synthetic peptides (GenScript) that were predicted from the prepropeptide sequence were tested and compared with the reactions to peptides with non-native modifications. Freely swimming larvae were exposed to different concentrations of peptides in 4-well and 6-well plates (1 ml and 5 ml total volume per well, respectively), and their reactions were observed under a stereomicroscope. To determine the efficiency of the native and modified peptides, the larvae were tested for the necessary minimum concentration at which they fully contracted and spread their chaetae, using 30–100 larvae in each test. To get an estimation of the peptide concentration that was necessary to induce a complete contraction, the larvae were initially exposed to 50 nmol l^−1 of the respective peptide and the concentration was then increased stepwise until the larvae fully contracted or a concentration of 50 µmol l^−1 was reached as an upper cutoff. […] To test the influence of the peptides on the vertical distribution of larvae in a water column, freely swimming larvae (50–100 per treatment) were exposed to peptides in transparent 4.5 ml cuvettes. About 60 s after addition of the peptides, the larvae were recorded with a digital camera (DMK 31AU03 camera, The Imaging Source) in a darkened box with artificial top-illumination. All experiments were repeated at least once with a different batch of larvae from another fertilization and the outcome was averaged. Control animals were exposed to DMSO only.

[2] = test system: T. transversa FLRFamide receptor; assay: Receptor deorphanization: luminescence response of transfected CHO-K1 cells; assay type: cell-based, Terebratalia transversa; conditions: fixed peptide concentration 1 µmol l^−1 (figure 4a)
From the text: For the receptor deorphanization, the procedure was used as described by Bauknecht & Jékely: full-length open reading frames of the receptor candidate sequences were amplified by PCR from cDNA of mixed larval stages. The forward primers included a 5′ attachment consisting of a spacer, an EcoR1 or BamH1 restriction site and a Kozak sequence and the reverse primers included a 5′ attachment consisting of a spacer and a Not1 restriction site (see the electronic supplementary material for primer sequences). […] The luminescence response of the transfected cells was measured in a plate reader (BioTek Synergy Mx or Synergy H4, BioTek, Winooski, USA) over 45 s after addition of the neuropeptides. […] Dose–response curves were calculated using PRISM 6 (GraphPad, La Jolla, USA) and normalized against the upper plateau values (100% activation).
Figure 4. Luminescence response of T. transversa FLRFamide receptor expressing CHO-K1 cells to different peptides. (a) Relative luminescence of T. transversa FLRFamide receptor expressing cells after exposure to different peptides with a fixed concentration of 1 µmol l^−1. […] Luminescence values are given relative to maximum luminescence (max = 1). RLU relative luminescence.

[3] = test system: late chaetous larvae of P. dumerilii; assay: Behavioural test of the orthologue peptide for a defence reaction; assay type: in vivo, Platynereis dumerilii; conditions: no defence reaction even above this concentration
[4] = test system: late chaetous larvae of Novocrania anomala; assay: as above; assay type: in vivo; conditions: no defence reaction even above this concentration

Chain of T. transversa FLRFamide receptor (as listed by the source): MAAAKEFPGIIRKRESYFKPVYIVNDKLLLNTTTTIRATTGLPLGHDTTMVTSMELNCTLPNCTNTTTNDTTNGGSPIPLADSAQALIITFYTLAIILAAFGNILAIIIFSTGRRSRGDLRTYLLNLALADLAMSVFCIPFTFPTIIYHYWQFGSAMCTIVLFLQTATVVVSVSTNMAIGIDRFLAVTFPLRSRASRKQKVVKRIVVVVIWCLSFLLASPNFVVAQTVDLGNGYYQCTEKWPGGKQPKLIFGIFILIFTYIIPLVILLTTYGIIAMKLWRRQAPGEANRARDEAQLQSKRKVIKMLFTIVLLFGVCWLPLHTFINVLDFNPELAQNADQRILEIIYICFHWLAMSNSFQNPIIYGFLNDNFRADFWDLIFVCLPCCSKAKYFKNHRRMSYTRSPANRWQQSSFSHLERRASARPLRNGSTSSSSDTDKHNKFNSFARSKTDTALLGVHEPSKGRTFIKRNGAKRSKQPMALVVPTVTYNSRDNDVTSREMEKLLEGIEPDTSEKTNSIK

Substance | contraction reaction of larvae (in words) [1] | necessary concentration to induce defense stance (full contraction) ([1]; batch 1) [µM] | necessary concentration to induce defense stance (full contraction) ([1]; batch 2) [µM] | further results
AFLRLamide [modified AFLRFamide with C-terminal leucine] | no reaction at all | – | – | –
AFLRWamide [modified AFLRFamide with amidated C-terminal tryptophan] | – | 20 | 20 | concentration triggering full contraction / defence stance (minimum necessary concentration) ([1]; cutoff 50 µmol l^−1): 20 µmol/L; reduction of effectiveness on changing the amidated C-terminal phenylalanine to an amidated tryptophan ([1]; relative to the corresponding Famide peptide): about 10 fold
DFLRLamide [modified DFLRFamide with C-terminal leucine] | very weak contraction | – | – | luminescence response of FLRFamide receptor expressing CHO-K1 cells (in words) [2]: barely higher than the negative control
FMRFamide [orthologue of AFLRFamide/DFLRFamide in P. dumerilii] | – | – | – | concentration inducing a defence reaction [3]: above 50 µmol l^−1
YMRFamide [orthologue of AFLRFamide/DFLRFamide] | – | 10 | 15 | concentration inducing a defence reaction [4]: above 50 µmol l^−1
